According to patent US10758534B2 (Vertex Pharmaceuticals Incorporated, priority 2014, dated 2020):

Target: T1, F508del (Homo sapiens, UniProt P13569, DEL508-508)
T1 construct: expressed in transfected cells
Assay: Protocol 1: membrane potential optical assay (FLIPR III, voltage sensing dye), identification of potentiator compounds
Assay type: cell-based
Settings: Table 3, compounds of Table 1
How it was run: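 Read-out: change in voltage-sensing dye fluorescence (FLIPR III) as a measure of F508del conductance. Temperature-corrected (27° C, 24 hrs) NIH 3T3 cells expressing F508del are pretreated with potentiators, dye-loaded, then stimulated with forskolin under a chloride ion gradient using chloride-free gluconate bath.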

T1 sequence (P13569 with tags, fused parts or gaps DEL508-508): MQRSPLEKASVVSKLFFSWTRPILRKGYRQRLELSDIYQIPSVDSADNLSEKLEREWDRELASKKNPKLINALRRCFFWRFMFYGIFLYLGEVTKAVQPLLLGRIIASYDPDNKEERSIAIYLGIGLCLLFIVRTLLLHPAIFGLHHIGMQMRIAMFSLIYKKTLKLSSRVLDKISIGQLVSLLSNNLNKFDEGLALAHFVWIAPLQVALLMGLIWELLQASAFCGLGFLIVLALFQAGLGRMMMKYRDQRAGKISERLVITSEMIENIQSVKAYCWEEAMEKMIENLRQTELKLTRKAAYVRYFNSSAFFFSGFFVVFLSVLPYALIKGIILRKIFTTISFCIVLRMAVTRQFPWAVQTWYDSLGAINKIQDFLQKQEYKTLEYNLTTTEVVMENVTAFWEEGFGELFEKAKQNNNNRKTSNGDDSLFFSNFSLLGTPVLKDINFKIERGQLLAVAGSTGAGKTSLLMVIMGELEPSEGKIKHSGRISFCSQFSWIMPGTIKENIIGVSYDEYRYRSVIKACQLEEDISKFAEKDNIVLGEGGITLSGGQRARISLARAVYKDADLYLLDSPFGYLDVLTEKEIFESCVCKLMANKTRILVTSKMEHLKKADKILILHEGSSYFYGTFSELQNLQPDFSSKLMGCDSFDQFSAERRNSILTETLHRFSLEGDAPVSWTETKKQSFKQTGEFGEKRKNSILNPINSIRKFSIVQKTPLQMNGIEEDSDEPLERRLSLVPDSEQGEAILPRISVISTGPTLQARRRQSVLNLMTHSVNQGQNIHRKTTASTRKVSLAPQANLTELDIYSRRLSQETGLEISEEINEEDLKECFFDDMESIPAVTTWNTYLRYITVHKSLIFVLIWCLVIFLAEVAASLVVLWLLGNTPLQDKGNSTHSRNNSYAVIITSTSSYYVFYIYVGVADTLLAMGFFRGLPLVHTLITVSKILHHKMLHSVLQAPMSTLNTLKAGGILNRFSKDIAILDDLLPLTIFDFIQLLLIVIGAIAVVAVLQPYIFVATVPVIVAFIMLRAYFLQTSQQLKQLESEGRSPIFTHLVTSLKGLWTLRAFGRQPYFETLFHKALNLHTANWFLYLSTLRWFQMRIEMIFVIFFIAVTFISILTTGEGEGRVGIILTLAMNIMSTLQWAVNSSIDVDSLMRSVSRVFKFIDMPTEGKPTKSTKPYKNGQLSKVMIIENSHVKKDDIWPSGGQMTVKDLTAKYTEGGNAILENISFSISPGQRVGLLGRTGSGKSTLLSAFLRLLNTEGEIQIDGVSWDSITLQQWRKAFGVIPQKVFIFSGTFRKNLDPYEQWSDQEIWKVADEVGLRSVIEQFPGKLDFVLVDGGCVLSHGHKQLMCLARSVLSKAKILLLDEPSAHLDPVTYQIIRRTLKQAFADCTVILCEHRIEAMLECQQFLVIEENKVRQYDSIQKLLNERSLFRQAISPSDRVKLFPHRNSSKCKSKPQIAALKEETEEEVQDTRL

Compound	EC30
CC(C)COc1cc(F)cc(-c2ccc(C(=O)NS(=O)(=O)c3cccc(N)n3)c(C3=CC(C)(C)OC(C)(C)C3)n2)c1 [Compound 1368, N-[(6-amino-2-pyridyl)sulfonyl]-6-(3-fluoro-5-isobutoxy-phenyl)-2-(2,2,6,6-tetramethyl-3H-pyran-4-yl)pyridine-3-carboxamide]	+++ (“+++” means <3 uM)
C[C@@H]1CN(c2nc(C3=CC(C)(C)OCC3)ccc2C(=O)NS(=O)(=O)c2cccc(N)n2)C(C)(C)C1 [Compound 1369, N-[(6-amino-2-pyridyl)sulfonyl]-6-(6,6-dimethyl-2,3-dihydropyran-4-yl)-2-[(4S)-2,2,4-trimethylpyrrolidin-1-yl]pyridine-3-carboxamide]	+++ (“+++” means <3 uM)
CCC1CC=C(c2ccc(C(=O)NS(=O)(=O)c3cccc(N)n3)c(Oc3c(C)cc(C)cc3C)n2)CC1 (stereo not drawn) [Compound 1370, N-[(6-amino-2-pyridyl)sulfonyl]-6-(4-ethylcyclohexen-1-yl)-2-(2,4,6-trimethylphenoxy)pyridine-3-carboxamide]	+++ (“+++” means <3 uM)
C[C@@H]1CN(c2nc(C3=CCCN(C(=O)OC(C)(C)C)C3)ccc2C(=O)NS(=O)(=O)c2cccc(N)n2)C(C)(C)C1 [Compound 1371, tert-butyl 5-[5-[(6-amino-2-pyridyl)sulfonylcarbamoyl]-6-[(4S)-2,2,4-trimethylpyrrolidin-1-yl]-2-pyridyl]-3,6-dihydro-2H-pyridine-1-carboxylate]	+++ (“+++” means <3 uM)
CCOc1cccc2c1CN(Cc1c(C)cc(C)cc1C)[C@]2(C)C(=O)NS(=O)(=O)c1cccc(N)n1 [Compound 1372, (1S)—N-[(6-amino-2-pyridyl)sulfonyl]-4-ethoxy-1-methyl-2-[(2,4,6-trimethylphenyl)methyl]isoindoline-1-carboxamide]	+++ (“+++” means <3 uM)
C=Cc1cc(C(=O)NS(=O)(=O)c2cccc(N)n2)c(N2C[C@@H](C)CC2(C)C)nc1C(C)(C)C [Compound 1373, N-[(6-amino-2-pyridyl)sulfonyl]-6-tert-butyl-2-[(4S)-2,2,4-trimethylpyrrolidin-1-yl]-5-vinyl-pyridine-3-carboxamide]	+++ (“+++” means <3 uM)
CC(C)COc1cc(F)cc(-c2ccc(C(=O)NS(=O)(=O)c3cccc(N)n3)c(OC(C)C3CCCC3)n2)c1 (stereo not drawn) [Compound 1374, N-[(6-amino-2-pyridyl)sulfonyl]-2-(1-cyclopentylethoxy)-6-(3-fluoro-5-isobutoxy-phenyl)pyridine-3-carboxamide]	+++ (“+++” means <3 uM)
CC(C)Oc1ccc(-c2ccc(C(=O)NS(=O)(=O)c3ccc(O)c(N)n3)c(N3[C@H](C)CC[C@@H]3C)n2)cn1 [Compound 1375, N-[(6-amino-5-hydroxy-2-pyridyl)sulfonyl]-2-[(2S,5R)-2,5-dimethylpyrrolidin-1-yl]-6-(6-isopropoxy-3-pyridyl)pyridine-3-carboxamide]	++ (“++” means between 3 uM and 10 uM)
Cc1cc(C)c(Oc2nc(C3CCCCCC3)ccc2C(=O)NS(=O)(=O)c2cccc(N)n2)c(C)c1 [Compound 1376, N-[(6-amino-2-pyridyl)sulfonyl]-6-cycloheptyl-2-(2,4,6-trimethylphenoxy)pyridine-3-carboxamide]	+++ (“+++” means <3 uM)
CCCC/C=C/c1cc(C(=O)NS(=O)(=O)c2cccc(N)n2)c(N2C[C@@H](C)CC2(C)C)nc1C(C)(C)C [Compound 1377, N-[(6-amino-2-pyridyl)sulfonyl]-6-tert-butyl-5-[(E)-hex-1-enyl]-2-[(4S)-2,2,4-trimethylpyrrolidin-1-yl]pyridine-3-carboxamide]	+++ (“+++” means <3 uM)
C[C@@H]1CN(c2nc(C3CC4CCC3C4)ccc2C(=O)NS(=O)(=O)c2cccc(N)n2)C(C)(C)C1 (stereo partly drawn) [Compound 1378, NV [(6-amino-2-pyridyl)sulfonyl]-6-norbornan-2-yl-2-[(4S)-2,2,4-trimethylpyrrolidin-1-yl]pyridine-3-carboxamide]	+++ (“+++” means <3 uM)
C[C@@H]1CN(c2nc(/C=C/C3CC3)ccc2C(=O)NS(=O)(=O)c2cccc(N)n2)C(C)(C)C1 [Compound 1379, N-[(6-amino-2-pyridyl)sulfonyl]-6-[(E)-2-cyclopropylvinyl]-2-[(4S)-2,2,4-trimethylpyrrolidin-1-yl]pyridine-3-carboxamide]	+++ (“+++” means <3 uM)
C[C@@H]1CN(c2nc(C(C)(C)C)c(C3=CCC(C(F)(F)F)CC3)cc2C(=O)NS(=O)(=O)c2cccc(N)n2)C(C)(C)C1 (stereo partly drawn) [Compound 1380, N-[(6-amino-2-pyridyl)sulfonyl]-6-tert-butyl-5-[4-(trifluoromethyl)cyclohexen-1-yl]-2-[(4S)-2,2,4-trimethylpyrrolidin-1-yl]pyridine-3-carboxamide]	+++ (“+++” means <3 uM)
CC1CN(c2nc(C(C)(C)C)c(C3=CCC(C(=O)O)CC3)cc2C(=O)NS(=O)(=O)c2cccc(N)n2)C(C)(C)C1 (stereo not drawn) [Compound 1381, 4-[5-[(6-amino-2-pyridyl)sulfonylcarbamoyl]-2-tert-butyl-6-(2,2,4-trimethylpyrrolidin-1-yl)-3-pyridyl]cyclohex-3-ene-1-carboxylic acid]	++ (“++” means between 3 uM and 10 uM)
CC1CN(c2nc(C(C)(C)C)c(C3=CCN(C)CC3)cc2C(=O)NS(=O)(=O)c2cccc(N)n2)C(C)(C)C1 (stereo not drawn) [Compound 1382, N-[(6-amino-2-pyridyl)sulfonyl]-6-tert-butyl-5-(1-methyl-3,6-dihydro-2H-pyridin-4-yl)-2-(2,2,4-trimethylpyrrolidin-1-yl)pyridine-3-carboxamide]	+ (“+” means greater than 10 uM)
CCN(CC)c1ccc(C)c(-c2ccc(C(=O)NS(=O)(=O)c3cccc(N)n3)c(N3CC(C)CC3(C)C)n2)n1 (stereo not drawn) [Compound 1383, N-[(6-amino-2-pyridyl)sulfonyl]-6-[6-(diethylamino)-3-methyl-2-pyridyl]-2-(2,2,4-trimethylpyrrolidin-1-yl)pyridine-3-carboxamide]	+++ (“+++” means <3 uM)
CC1CN(c2ncc(-c3ccccc3)cc2C(=O)NS(=O)(=O)c2cccc(N)n2)C(C)(C)C1 (stereo not drawn) [Compound 1384, N-[(6-amino-2-pyridyl)sulfonyl]-5-phenyl-2-(2,2,4-trimethylpyrrolidin-1-yl)pyridine-3-carboxamide]	+++ (“+++” means <3 uM)
CC(C)COc1cc(F)cc(-c2nc(N3C[C@H](C)CC3(C)C)ccc2C(=O)NS(=O)(=O)c2cccc(N)n2)c1 [Compound 1385, N-[(6-amino-2-pyridyl)sulfonyl]-2-(3-fluoro-5-isobutoxy-phenyl)-6-[(4R)-2,2,4-trimethylpyrrolidin-1-yl]pyridine-3-carboxamide]	+++ (“+++” means <3 uM)
C[C@@H]1CN(c2nc3c(cc2C(=O)NS(=O)(=O)c2cccc(N)n2)CCC3)C(C)(C)C1 [Compound 1386, N-[(6-amino-2-pyridyl)sulfonyl]-2-[(4S)-2,2,4-trimethylpyrrolidin-1-yl]-6,7-dihydro-5H-cyclopenta[b]pyridine-3-carboxamide]	++ (“++” means between 3 uM and 10 uM)
CC(C)COc1cc(F)cc(-c2ccc(C(=O)NS(=O)(=O)c3cccc(N)n3)c(-n3nc(C(C)C)cc3C(C)C)n2)c1 [Compound 1387, N-[(6-amino-2-pyridyl)sulfonyl]-2-(3,5-diisopropylpyrazol-1-yl)-6-(3-fluoro-5-isobutoxy-phenyl)pyridine-3-carboxamide]	+++ (“+++” means <3 uM)
CC1CN(c2nc(C(C)(C)C)c(C3=CC4CCC(C3)N4C(=O)OC(C)(C)C)cc2C(=O)NS(=O)(=O)c2cccc(N)n2)C(C)(C)C1 (stereo not drawn) [Compound 1388, tert-butyl 3-[5-[(6-amino-2-pyridyl)sulfonylcarbamoyl]-2-tert-butyl-6-(2,2,4-trimethylpyrrolidin-1-yl)-3-pyridyl]-8-azabicyclo[3.2.1]oct-3-ene-8-carboxylate]	+++ (“+++” means <3 uM)
Cc1cc(C)c(Oc2nc(C3=CCN(Cc4ccccc4)CC3)ccc2C(=O)NS(=O)(=O)c2cccc(N)n2)c(C)c1 [Compound 1389, N-[(6-amino-2-pyridyl)sulfonyl]-6-(1-benzyl-3,6-dihydro-2H-pyridin-4-yl)-2-(2,4,6-trimethylphenoxy)pyridine-3-carboxamide]	+++ (“+++” means <3 uM)
CC(C)=C(C)c1ccc(C(=O)NS(=O)(=O)c2cccc(N)n2)c(Oc2c(C)cc(C)cc2C)n1 [Compound 1390, N-[(6-amino-2-pyridyl)sulfonyl]-6-(1,2-dimethylprop-1-enyl)-2-(2,4,6-trimethylphenoxy)pyridine-3-carboxamide]	+++ (“+++” means <3 uM)
CC(=O)NC1CCN(S(=O)(=O)NC(=O)c2ccc(-c3cc(F)cc(OCC(C)C)c3)nc2N2CC(C)CC2(C)C)C1 (stereo not drawn) [Compound 1391, N-(3-acetamidopyrrolidin-1-yl)sulfonyl-6-(3-fluoro-5-isobutoxy-phenyl)-2-(2,2,4-trimethylpyrrolidin-1-yl)pyridine-3-carboxamide]	+++ (“+++” means <3 uM)
CCOc1cccc2c1CN(Cc1c(C)cccc1F)C2(C)C(=O)NS(=O)(=O)c1cccc(N)n1 (stereo not drawn) [Compound 1392, N-[(6-amino-2-pyridyl)sulfonyl]-4-ethoxy-2-[(2-fluoro-6-methyl-phenyl)methyl]-1-methyl-isoindoline-1-carboxamide]	+++ (“+++” means <3 uM)
CCOc1cccc2c1CN(Cc1c(C)cc(C)cc1C)C2(C)C(=O)NS(=O)(=O)c1ccc2cc[nH]c2c1 (stereo not drawn) [Compound 1393, 4-ethoxy-N-(1H-indol-6-ylsulfonyl)-1-methyl-2-[(2,4,6-trimethylphenyl)methyl]isoindoline-1-carboxamide]	+++ (“+++” means <3 uM)
CCOc1cccc2c1CN(Cc1c(C)cc(C)cc1C)C2(C)C(=O)NS(=O)(=O)c1ccc(F)c(N)c1 (stereo not drawn) [Compound 1394, N-(3-amino-4-fluoro-phenyl)sulfonyl-4-ethoxy-1-methyl-2-[(2,4,6-trimethylphenyl)methyl]isoindoline-1-carboxamide]	+++ (“+++” means <3 uM)
